Columns and labels:
[1] = Study on the crystal form of salt of compound (crystallization with counter ion acids); assay type: physicochemical; conditions: base: acid=1:1.2, 25° C.
Procedure: To identify which counter ion acids can form crystal form of salt of compound by selecting different counter ion acids according to suitable crystallization methods.
1 mL of the solution was taken into a glass bottle, and different counter ion acids (molar reaction ratio of base: acid=1:1.2) were added, and then the glass bottle was opened at room temperature to volatile solvent. The amorphous or oily was pulped with 200 μL of ethyl acetate.
1) 10 mg of crystal form B of free base was weighed, and 200 μL of methanol solvent was added, and counter ion acid (molar reaction ratio of base: acid=1:1.2) was added respectively at 25° C.
2) 85 mg of crystal form B of free base was weighed, and ethyl acetate was added to produce a clear solution. Different counter ion acids (molar reaction ratio of base: acid=1:1.2) were added respectively at 25° C.

[2] = Pharmacokinetic assay in Balb/c mice (plasma and brain tissue); assay type: in vivo; conditions: p.o. 5 mg/kg
Procedure: (III). Pharmacokinetic Assay in Balb/c Mice
Balb/c mice were used as test animals. The pharmacokinetic behavior in mouse body (plasma and brain tissue) of the compounds of Examples of the present invention was studied at an oral administration dose of 5 mg/kg.
Male Balb/c mice (12 mice per group), purchased from Shanghai Jiesijie Laboratory Animal Co., LTD, with Certificate No.: SCXK (Shanghai) 2013-0006 N0.311620400001794.
The test compound was dissolved in 0.5% CMC-Na (1% Tween80) by sonication to formulate a clear solution or homogeneous suspension.
After an overnight fast, male Balb/c mice (12 mice per group) were administered p.o. with the test compound at an administration dose of 5 mg/kg and an administration volume of 10 mL/kg.
0.2 mL of blood was taken from the heart of the mouse before administration and at 1, 2, 4, 8 and 24 hours after administration, and the mice were sacrificed with CO2. The samples were stored in EDTA-K2 tubes, and centrifuged for 6 minutes at 4° C., 6000 rpm to separate the plasma. The plasma samples were stored at −80° C. Whole brain tissue was taken out, weighed, placed in a 2 mL centrifuge tube, and stored at −80° C.
1) 160 μL of acetonitrile was added to 40 μL of the plasma sample for precipitation, and then the mixture was centrifuged for 5 to 20 minutes at 3500×g.
2) 90 μL of acetonitrile containing internal standard (100 ng/mL) was added to 30 μL of the plasma and brain homogenate sample for precipitation, and then the mixture was centrifuged for 8 minutes at 13000 rpm.
3) 70 μL of water was added to 70 μL of the treated supernatant and mixed by vortex for 10 minutes. 20 μL of the supernatant was taken to analyze the concentration of the test compound by LC/MS/MS. LC/MS/MS analytical instrument: AB Sciex API 4000 Qtrap.
• Liquid chromatography condition: Shimadzu LC-20AD pump • Chromatographic column: Agilent ZORBAX XDB-C18 (50×2.1 mm, […]); Mobile phase: Eluent A was 0.1% formic acid in water, and Eluent B was acetonitrile • Flow rate: 0.4 mL/min • Elution time: 0-4.0 minutes, the eluent is as follows:
The main parameters of pharmacokinetics were calculated by WinNonlin 6.1.

[3] = Stability study of salt (5 days and 10 days, HPLC related substances); assay type: physicochemical
Procedure: 2.1.3 Stability Study of Salt
Hydrochloride and p-toluenesulfonate of N-(trans-3-(2-(4-(2,3-dichlorophenyl)piperazin-1-yl)ethyl)cyclobutyl)oxazole-2-carboxamide were weighed about 1 mg, respectively, and then placed under light (5000 lux), high temperature (60° C.), high humidity (92.50 RH), high temperature and high humidity (50° C. and 75% RH) for 5 days and 10 days, then a diluent DMSO was added to prepare a solution with salt concentration of about 1 mg/mL.
The chromatographic peak area normalization method was used to calculate the changes of related substances.

[4] = Solid stability experiment of crystal form of salt; assay type: physicochemical; conditions: for Maximum single impurity increase % / Total impurity increase %: listed as Crystal form B of p-toluenesulfonate
Procedure: 4. Solid Stability Experiment
The physicochemical stability of crystal form of salt of compound N-(trans-3-(2-(4-(2,3-dichlorophenyl)piperazin-1-yl)ethyl)cyclobutyl)oxazole-2-carboxamide under the conditions of light 50001×, high temperature 60° C., high humidity 92.5% RH and high temperature and high humidity 50° C. 75% RH was investigated, which provided a basis for crystal form screening and compound crystal form storage.
About 1 mg of different crystal forms of salt were taken and placed under the conditions of light 50001×, high temperature 60° C., high humidity 92.5% RH, high temperature and high humidity 50° C. 75% RH for 5 days and 10 days. The salt content was determined by HPLC and external standard method, and the change of relevant substances was calculated by chromatographic peak area normalization method.

[5] = GWGS-5 d (high temperature and high humidity)
[6] = GWGS-10 d (high temperature and high humidity)

Structure (SMILES): CC(=O)O [1M acetic acid in methanol]
- Phenomenon ([1]; solvent Isopropanol): Turbid
- Phenomenon ([1]; solvent Isopropyl ether): Turbid

Structure (SMILES): O=C(NC1CC(CCN2CCN(c3cccc(Cl)c3Cl)CC2)C1)C1(O)CC1 (stereo not shown) [Example 6, N-(3-(2-(4-(2,3-Dichlorophenyl)piperazin-1-yl)ethyl)cyclobutyl)-1-hydroxycyclopropane-1-carboxamide]
- Peak time tmax ([2]; Brain): 60 min
- Peak time tmax ([2]; Plasma): 30 min

Structure (SMILES): O=C(N[C@H]1C[C@H](CCN2CCN(c3cccc(Cl)c3Cl)CC2)C1)c1ncco1 [p-toluenesulfonate, N-(trans-3-(2-(4-(2,3-dichlorophenyl)piperazin-1-yl)ethyl)cyclobutyl)oxazole-2-carboxamide]
- RRT 0.190 Area % ([3]; 0 d): 0.317%
- RRT 0.210 Area % ([3]; 0 d): 0.073%
- RRT 1.000 Area % ([3]; 0 d): 99.217%
- RRT 1.050 Area % ([3]; 0 d): 0.149%
- RRT 1.190 Area % ([3]; 0 d): 0.178%
- RRT 1.540 Area % ([3]; 0 d): 0.067%
- total Area % (related substances) ([3]; 0 d): 0.783%
- RRT 0.190 Area % ([3]; GS-5 d (high humidity)): 0.213%
- RRT 0.210 Area % ([3]; GS-5 d (high humidity)): 0.074%
- RRT 1.000 Area % ([3]; GS-5 d (high humidity)): 99.310%
- RRT 1.050 Area % ([3]; GS-5 d (high humidity)): 0.145%
- RRT 1.190 Area % ([3]; GS-5 d (high humidity)): 0.177%
- RRT 1.540 Area % ([3]; GS-5 d (high humidity)): 0.080%
- total Area % (related substances) ([3]; GS-5 d (high humidity)): 0.690%
- RRT 0.190 Area % ([3]; GS-10 d (high humidity)): 0.233%
- RRT 0.210 Area % ([3]; GS-10 d (high humidity)): 0.075%
- RRT 1.000 Area % ([3]; GS-10 d (high humidity)): 99.298%
- RRT 1.050 Area % ([3]; GS-10 d (high humidity)): 0.143%
- RRT 1.190 Area % ([3]; GS-10 d (high humidity)): 0.180%
- RRT 1.540 Area % ([3]; GS-10 d (high humidity)): 0.071%
- total Area % (related substances) ([3]; GS-10 d (high humidity)): 0.702%
- RRT 0.190 Area % ([3]; GW-5 d (high temperature)): 0.163%
- RRT 0.210 Area % ([3]; GW-5 d (high temperature)): 0.072%
- RRT 1.000 Area % ([3]; GW-5 d (high temperature)): 99.400%
- RRT 1.050 Area % ([3]; GW-5 d (high temperature)): 0.121%
- RRT 1.190 Area % ([3]; GW-5 d (high temperature)): 0.175%
- RRT 1.540 Area % ([3]; GW-5 d (high temperature)): 0.068%
- total Area % (related substances) ([3]; GW-5 d (high temperature)): 0.600%
- RRT 0.190 Area % ([3]; GW-10 d (high temperature)): 0.224%
- RRT 0.210 Area % ([3]; GW-10 d (high temperature)): 0.075%
- RRT 1.000 Area % ([3]; GW-10 d (high temperature)): 99.319%
- RRT 1.050 Area % ([3]; GW-10 d (high temperature)): 0.131%
- RRT 1.190 Area % ([3]; GW-10 d (high temperature)): 0.178%
- RRT 1.540 Area % ([3]; GW-10 d (high temperature)): 0.073%
- total Area % (related substances) ([3]; GW-10 d (high temperature)): 0.681%
- RRT 0.190 Area % [3, 5]: 0.348%
- RRT 0.210 Area % [3, 5]: 0.072%
- RRT 1.000 Area % [3, 5]: 99.204%
- RRT 1.050 Area % [3, 5]: 0.137%
- RRT 1.190 Area % [3, 5]: 0.170%
- RRT 1.540 Area % [3, 5]: 0.070%
- total Area % (related substances) [3, 5]: 0.796%
- RRT 0.190 Area % [3, 6]: 0.319%
- RRT 0.210 Area % [3, 6]: 0.074%
- RRT 1.000 Area % [3, 6]: 99.246%
- RRT 1.050 Area % [3, 6]: 0.128%
- RRT 1.190 Area % [3, 6]: 0.168%
- RRT 1.540 Area % [3, 6]: 0.065%
- total Area % (related substances) [3, 6]: 0.754%
- RRT 0.190 Area % ([3]; GZ-5 d (light)): 0.266%
- RRT 0.210 Area % ([3]; GZ-5 d (light)): 0.072%
- RRT 0.890 Area % ([3]; GZ-5 d (light)): 0.130%
- RRT 1.000 Area % ([3]; GZ-5 d (light)): 99.184%
- RRT 1.050 Area % ([3]; GZ-5 d (light)): 0.101%
- RRT 1.190 Area % ([3]; GZ-5 d (light)): 0.171%
- RRT 1.540 Area % ([3]; GZ-5 d (light)): 0.075%
- total Area % (related substances) ([3]; GZ-5 d (light)): 0.816%
- RRT 0.190 Area % ([3]; GZ-10 d (light)): 0.324%
- RRT 0.210 Area % ([3]; GZ-10 d (light)): 0.073%
- RRT 0.890 Area % ([3]; GZ-10 d (light)): 0.232%
- RRT 1.000 Area % ([3]; GZ-10 d (light)): 99.028%
- RRT 1.050 Area % ([3]; GZ-10 d (light)): 0.115%
- RRT 1.190 Area % ([3]; GZ-10 d (light)): 0.162%
- RRT 1.540 Area % ([3]; GZ-10 d (light)): 0.066%
- total Area % (related substances) ([3]; GZ-10 d (light)): 0.972%
- changes in impurities ([3]; high temperature, high humidity, and high temperature and high humidity, 5 and 10 days): no significant changes in impurities

Structure (SMILES): O=C(N[C@H]1C[C@H](CCN2CCN(c3cccc(Cl)c3Cl)CC2)C1)C1(O)CC1 [Example 6A, N-(Trans-3-(2-(4-(2,3-dichlorophenyl)piperazin-1-yl)ethyl)cyclobutyl)-1-hydroxycyclopropane-1-carboxamide]
- Peak time tmax ([2]; Brain): 60 min
- Peak time tmax ([2]; Plasma): 30 min

Structure (SMILES): O=C(N[C@H]1C[C@H](CCN2CCN(c3cccc(Cl)c3Cl)CC2)C1)c1cccc2ncccc12 [Example 19A, N-(trans-3-(2-(4-(2,3-dichlorophenyl)piperazin-1-yl)ethyl)cyclobutyl)quinoline-5-carboxamide]
- Peak time tmax ([2]; Brain): 60 min
- Peak time tmax ([2]; Plasma): 30 min

Structure (SMILES): O=C(N[C@H]1C[C@H](CCN2CCN(c3cccc(Cl)c3Cl)CC2)C1)c1ncco1 [Example 12A, N-(Trans-3-(2-(4-(2,3-dichlorophenyl)piperazin-1-yl)ethyl)cyclobutyl)oxazole-2-carboxamide]
- Peak time tmax ([2]; Brain): 60 min
- Peak time tmax ([2]; Plasma): 30 min

Structure (SMILES): O=C(N[C@H]1C[C@H](CCN2CCN(c3cccc(Cl)c3Cl)CC2)C1)c1ncco1 [crystal form B of p-toluenesulfonate, N-(trans-3-(2-(4-(2,3-dichlorophenyl)piperazin-1-yl)ethyl)cyclobutyl)oxazole-2-carboxamide]
- Maximum single impurity increase % ([4]; High humidity, 5 Days): <0.02%
- Total impurity increase % ([4]; High humidity, 5 Days): <0.02%
- Total impurity increase % ([4]; High temperature, 10 Days): <0.02%
- Maximum single impurity increase % ([4]; Light, 5 Days): 0.13%
- Total impurity increase % ([4]; Light, 5 Days): 0.03%
- Maximum single impurity increase % ([4]; Light, 10 Days): 0.13%
- Total impurity increase % ([4]; Light, 10 Days): 0.19%
- single impurity ([4]; light conditions): increases significantly
- crystal form stability ([4]; other conditions than light): stable
